Data on two compounds can be found in patent US20240336634A1, “AGONISTS OF TYRO3 AS PROTECTION AGAINST PODOCYTE INJURY IN KIDNEY GLOMERULAR DISEASE” (The Government of the United States of America as …, priority 2021, published 2024).

The test system of one series is AKT. The series can be described thus: AKT phosphorylation in podocytes, western blot. The note with it: 30 minutes, screening (FIG. 2). In kind it is cell-based. As for the experimental part:
(§1) FIG. 2A-C show representative data illustrating screening of TYRO3 agonists by activation of TYRO3, AKT, and NK-κB target gene expression. Referring to FIG. 2A and FIG. 2B, podocytes were treated with control vehicle (C) or different TYRO3 agonists (compounds 1-10) for 30 minutes. Western blot analysis was performed for phospho- or total Tyro3 (FIG. 2A) and AKT (FIG. 2B). Referring to FIG. 2C, podocytes were treated with vehicle control (C), TNF-α (10 ng) alone (T), or together with different TYRO3 agonists (compounds 1-10) for 2 hours, and then q-PCR analysis was performed for NF-kB target gene expression (IL-6). N=3, *p<0.01 as compared to TNF-α alone.
(§2) FIG. 3A and FIG. 3B show representative data illustrating the time course and dose effects of C-10 on the phosphorylation of TYRO3, AKT, and NK-κB target gene expression. Referring to FIG. 3A, podocytes were treated with C-10 for 30 minutes at different doses (left) or at 100 nM for different time period (right). […]
(§3) Next, their biological activity was screened by testing their effects on TYRO3, and AKT phosphorylation in podocytes. […] In addition, TYRO3 and Axl were overexpressed in podocytes (FIG. 4B), and the effects of C-10 in these cells was determined.
A general note: A western blot detects proteins with antibodies after separation by electrophoresis.

The next series concerns the target T1, TYRO3 (Homo sapiens, UniProt Q06418).
T1 construct: testing their effects on TYRO3, and AKT phosphorylation in podocytes; endogenous in cells
T1 sequence (Q06418 41-890): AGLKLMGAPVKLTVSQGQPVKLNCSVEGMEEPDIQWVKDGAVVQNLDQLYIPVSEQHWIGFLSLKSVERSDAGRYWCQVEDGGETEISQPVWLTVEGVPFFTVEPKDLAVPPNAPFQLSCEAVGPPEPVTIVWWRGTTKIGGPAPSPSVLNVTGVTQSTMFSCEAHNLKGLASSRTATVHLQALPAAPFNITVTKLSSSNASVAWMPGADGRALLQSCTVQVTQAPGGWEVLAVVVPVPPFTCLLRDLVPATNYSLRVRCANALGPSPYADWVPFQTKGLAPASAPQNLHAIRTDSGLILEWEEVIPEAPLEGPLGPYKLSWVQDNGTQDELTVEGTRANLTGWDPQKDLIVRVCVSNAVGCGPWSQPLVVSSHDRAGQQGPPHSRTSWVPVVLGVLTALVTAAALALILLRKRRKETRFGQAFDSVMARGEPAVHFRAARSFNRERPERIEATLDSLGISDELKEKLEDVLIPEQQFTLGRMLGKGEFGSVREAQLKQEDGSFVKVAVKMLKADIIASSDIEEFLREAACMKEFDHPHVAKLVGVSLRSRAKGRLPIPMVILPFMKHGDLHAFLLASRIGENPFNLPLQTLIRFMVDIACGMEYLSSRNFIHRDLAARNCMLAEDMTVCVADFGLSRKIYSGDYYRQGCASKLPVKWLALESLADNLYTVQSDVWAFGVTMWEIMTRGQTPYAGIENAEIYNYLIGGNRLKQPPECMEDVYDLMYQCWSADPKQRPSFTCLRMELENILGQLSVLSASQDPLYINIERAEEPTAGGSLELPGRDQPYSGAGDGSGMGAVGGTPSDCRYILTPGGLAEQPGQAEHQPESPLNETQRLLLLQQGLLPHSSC
The series can be described thus: TYRO3 phosphorylation in podocytes, western blot. It counts as cell-based. The settings on record: for TYRO3 phosphorylation: podocytes, 30 minutes. As for the experimental part: as §1
FIG. 3A and FIG. 3B show representative data illustrating the time course and dose effects of C-10 on the phosphorylation of TYRO3, AKT, and NK-κB target gene expression. Referring to FIG. 3A, podocytes were treated with C-10 for 30 minutes at different doses (left) or at 100 nM for different time period (right). Referring to FIG. 3B, podocytes were treated with vehicle control TNF-α (10 ng) alone or together with different concentrations of C-10 for 2 hours, and then q-PCR analysis was performed for NF-kB target gene expression (IL-6 and CCL2). N=3, *p<0.01 and **p<0.001 as compared to TNF-α alone.
(§4) Referring to FIG. 4B, HEK293T cells were used to confirm the overexpression of Tyro3 and Axl (C: control; OV:overexpression). Referring to FIG. 4C, cells from above transfection were stimulated with C-10 at 100 nM for 30 minutes. Western blot analysis was performed for phospho- and total AKT and GAPDH was used as a control of protein loading. The representative blots of three independent experiments are shown.
(§5) Next, their biological activity was screened by testing their effects on TYRO3, and AKT phosphorylation in podocytes. […] To test the specificity, podocytes were treated with different doses of C-10 for 30 minutes, and then western blot analysis was performed with anti-phospho-Tyro3 antibody, which also recognizes phosphorylation of Mer and Axl. Since three TAM receptors have different molecular weights, they can be distinguished in the SDS gel. […] In addition, TYRO3 and Axl were overexpressed in […] (FIG. 4B), and the effects of C-10 in these cells was determined.

In series [1] the test system is NF-κB target gene expression (IL-6). The series can be described thus: NF-κB target gene expression in TNF-α treated podocytes, q-PCR. In kind it is cell-based. The settings on record: TNF-α (10 ng), 2 hours, IL-6 q-PCR. As for the experimental part:
as §1, §2, §3

In another series the target is T2, Axl (Homo sapiens, UniProt P30530).
T2 construct: endogenous in cells; host or cells: human podocytes
T2 sequence (P30530 26-894): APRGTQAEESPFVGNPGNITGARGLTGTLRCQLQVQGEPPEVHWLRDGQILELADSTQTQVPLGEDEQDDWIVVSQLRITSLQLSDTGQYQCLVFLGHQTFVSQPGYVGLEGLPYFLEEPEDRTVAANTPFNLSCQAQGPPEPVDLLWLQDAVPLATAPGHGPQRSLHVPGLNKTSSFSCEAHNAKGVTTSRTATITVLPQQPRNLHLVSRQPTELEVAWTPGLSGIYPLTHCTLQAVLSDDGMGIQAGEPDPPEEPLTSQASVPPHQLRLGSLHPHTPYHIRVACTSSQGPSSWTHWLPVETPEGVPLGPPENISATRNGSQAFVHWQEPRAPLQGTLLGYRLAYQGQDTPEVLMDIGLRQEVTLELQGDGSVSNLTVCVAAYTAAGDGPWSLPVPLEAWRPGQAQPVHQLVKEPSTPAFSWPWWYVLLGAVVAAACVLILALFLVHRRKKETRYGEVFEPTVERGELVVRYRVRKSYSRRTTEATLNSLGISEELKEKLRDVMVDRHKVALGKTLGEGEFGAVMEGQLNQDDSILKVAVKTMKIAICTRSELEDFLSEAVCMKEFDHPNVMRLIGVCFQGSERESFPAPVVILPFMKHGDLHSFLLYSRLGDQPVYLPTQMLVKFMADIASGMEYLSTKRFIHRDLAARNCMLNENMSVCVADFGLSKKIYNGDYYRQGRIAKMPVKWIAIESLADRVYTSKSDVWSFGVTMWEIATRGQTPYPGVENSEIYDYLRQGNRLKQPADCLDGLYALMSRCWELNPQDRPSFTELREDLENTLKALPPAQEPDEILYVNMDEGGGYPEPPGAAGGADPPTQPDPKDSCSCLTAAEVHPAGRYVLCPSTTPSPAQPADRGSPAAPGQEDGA
The series can be described thus: Axl phosphorylation in podocytes, western blot with anti-phospho-TAM receptor antibody. The note with it: different doses, 30 minutes (FIG. 4A). It counts as cell-based. As for the experimental part:
as §4, §5

Series [2] relates to mice with Adriamycin-induced nephropathy (ADRN). The series can be described thus: Adriamycin-induced nephropathy (ADRN) in mice. It counts as in vivo. As for the experimental part: FIG. 5A-C show representative data illustrating that C-10 treatment attenuates adriamycin-induced nephropathy (ADRN) in mice. 10-week old male Balb/c mice were injected with adriamycin (8 mg/kg) and treated with C-10 at 20 mg/kg from day 3 post-injection. All mice were sacrificed at day 28 post-injection.
The effect of C-10 was determined in vivo in mice with Adriamycin-induced nephropathy (ADRN). ADRN was induced in the Balb/c mice by injection of adriamycin at a dose of 8 mg/kg at the age of 10 weeks. The mice were fed with either C-10 at a dose of 20 mg/kg body weight or vehicle by daily gavage started on day 3 after they received an injection of Adriamycin, and ending in 4 weeks when the mice were sacrificed.

Series [3] concerns TYRO3 overexpressing cells. The series can be described thus: AKT phosphorylation in TYRO3 overexpressing cells. In kind it is cell-based. The note with it: 100 nM, 30 minutes (FIG. 4C). As for the experimental part: as §4, §5
Another series concerns diabetic mice (db/db). The series can be described thus: Albuminuria and glomerular injury in diabetic db/db mice. It counts as in vivo. The settings on record: 2.5 mg/kg from age 10 weeks, 8 weeks. As for the experimental part:
FIG. 6A-C show representative data illustrating that treatment with C-10 improves albuminuria and glomerular injury in diabetic mice. Db/db mice were treated with C-10 at 2.5 mg/kg at age of 10 week, the mice were sacrificed after 8 weeks of treatment.
The effect of C-10 on albuminuria and glomerular injury in diabetic mice was also evaluated. 10 week old db/db mice were treated with C-10 at 2.5 mg/kg. Mice were sacrificed at week 8. As shown in FIGS. 6A-C, administration of C-10 improved both albuminuria and glomerular injury relative to control.

A further series has as its target T3, Mer (Homo sapiens, UniProt Q12866).
T3 construct: endogenous in cells; host or cells: human podocytes
T3 sequence (Q12866 21-999): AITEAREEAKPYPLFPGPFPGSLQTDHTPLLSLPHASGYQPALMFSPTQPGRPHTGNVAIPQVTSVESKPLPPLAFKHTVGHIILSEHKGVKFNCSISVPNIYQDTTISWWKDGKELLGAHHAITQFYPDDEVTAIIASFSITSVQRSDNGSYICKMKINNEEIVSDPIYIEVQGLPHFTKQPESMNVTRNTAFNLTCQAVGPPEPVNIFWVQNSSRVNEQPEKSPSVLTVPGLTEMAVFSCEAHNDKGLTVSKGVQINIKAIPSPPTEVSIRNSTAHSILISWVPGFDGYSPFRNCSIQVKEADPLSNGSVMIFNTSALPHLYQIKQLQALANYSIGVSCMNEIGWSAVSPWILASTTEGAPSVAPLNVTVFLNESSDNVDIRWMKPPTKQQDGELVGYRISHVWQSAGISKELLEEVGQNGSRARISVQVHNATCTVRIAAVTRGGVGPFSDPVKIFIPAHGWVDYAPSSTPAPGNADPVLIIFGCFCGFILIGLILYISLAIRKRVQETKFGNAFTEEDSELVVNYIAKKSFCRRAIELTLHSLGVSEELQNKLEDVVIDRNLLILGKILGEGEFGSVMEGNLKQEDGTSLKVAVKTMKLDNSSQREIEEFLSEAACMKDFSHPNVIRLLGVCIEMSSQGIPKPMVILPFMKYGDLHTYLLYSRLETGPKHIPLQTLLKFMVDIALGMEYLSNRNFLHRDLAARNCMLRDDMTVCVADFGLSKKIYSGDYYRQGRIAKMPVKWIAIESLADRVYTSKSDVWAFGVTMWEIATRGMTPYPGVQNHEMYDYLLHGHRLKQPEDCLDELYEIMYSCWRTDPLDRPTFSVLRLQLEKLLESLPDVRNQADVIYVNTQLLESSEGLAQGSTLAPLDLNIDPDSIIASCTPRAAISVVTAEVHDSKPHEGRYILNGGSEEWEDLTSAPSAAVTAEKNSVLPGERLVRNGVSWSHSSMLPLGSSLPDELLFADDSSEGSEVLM
The series can be described thus: Mer phosphorylation in podocytes, western blot with anti-phospho-TAM receptor antibody. In kind it is cell-based. The settings on record: different doses, 30 minutes (FIG. 4A). As for the experimental part: as §4, §5

Setting [4] is: ADRN Balb/c mice, 20 mg/kg daily gavage from day 3, 4 weeks.

As for `COc1cc(-c2nc(O)c(C)s2)ccc1Br` [C-8, 2-(4-Bromo-3-Methoxyphenyl)-5-Methylthiazol-4-ol], the AKT phosphorylation entry in the series with AKT is reported as “induced significantly”. Besides, at TYRO3 (screening (FIG. 2A)), the TYRO3 phosphorylation result is recorded as “induced significantly”. For the same compound, the “NF-κB target gene expression” value in series [1] was “suppressed”.
For the compound `Cc1sc(-c2ccc(B(O)O)s2)nc1O` [C-10, (5-(4-Hydroxy-5-Methylthiazol-2-yl)Thiophen-2-yl)Boronic Acid], in the series with AKT, the AKT phosphorylation result was “induced significantly”. For the same compound, the “phosphorylation of Axl” value on Axl is listed as “did not affect”. In addition, the “toxicity during the treatment period” value in series [2] (ADRN Balb/c mice, 20 mg/kg daily gavage) is recorded as “No obvious toxicity”. In addition, the results for the albuminuria result (in series [2] (setting [4]); with diabetic mice (db/db)) were “significantly reduced” and “improved”, respectively. The figures for the glomerular injury entry (in series [2] (setting [4]); in the series with diabetic mice (db/db)) were “significantly reduced” and “improved”, respectively. Further, the “adriamycin-induced nephropathy (ADRN)” value in series [2] (Balb/c mice, 20 mg/kg from day 3, sacrificed day 28) was “attenuates”. Besides, the “AKT phosphorylation in TYRO3 overexpressing cells” value in series [3] was “induced”. Further, the “specificity as agonist for TYRO3 among TAM receptors” value on TYRO3 (from phosphorylation of Tyro3, Axl and Mer) is “quite specific agonist for TYRO3”. Besides, the TYRO3 phosphorylation entry is “induced significantly” on TYRO3 (screening (FIG. 2A)) and “induced significantly” at TYRO3 (different doses, anti-phospho-Tyro3 antibody (FIG. 4A)). Besides, at TYRO3 (screening in podocytes), the “effect as TYRO3 agonist compared between hits” value is reported as “appears better than C-8”. Also, the “phosphorylation of Mer” value at Mer was “slightly reduced”. Also, the “NF-κB target gene expression” value in series [1] is on record as “suppressed”.
